Test results taken from paper PMC9977057, “Indenyl-thiazole and indenyl-formazan derivatives: Synthesis, anticancer screening studies, molecular-docking, and pharmacokinetic/ molin-spiration properties” (PLOS ONE, 2023).

What was measured:
[1] = test system: Gastric (SNU-16) Patch number (ATCC CRL-5822); assay: SRB cytotoxicity assay, gastric cancer cells SNU-16; type: cell-based
Description: (§1) A- Cell culture. The cells were obtained from the Egyptian Holding Company for Biological Products & Vaccines (VACSERA), Giza, Egypt, then maintained in the tissue culture unit. […] The cells were maintained as monolayer culture by serial sub‐culturing. Cell culture reagents were obtained from Lonza (Basel, Switzerland).
(§2) Sulforhodamine B(SRB) assay method was used to evaluate cytotoxicity. […] After 24 h, cells were incubated for 72 h with various concentrations of the tested compounds. Following 72 h treatments, the cells would be fixed with 10% trichloroacetic acid for 1 h at 4°C. Wells were stained for 10 minutes at room temperature with 0.4% SRBC (Sulphorhodamine B) dissolved in 1% acetic acid. After that, the plates were air-dried for 24 h. At the same time, the dye was dissolved in Tris‐HCl and left for 5 min on the shaker at 1600 rpm. Each well’s optical density (OD) was measured spectrophotometrically at 564 nm; by using an ELISA microplate reader (ChroMate‐4300, FL, USA). The IC50 values were calculated according to the equation for Boltzman sigmoidal concentration-response curve using the nonlinear regression fitting models (Graph Pad, Prism Version 9).

[2] = test system: COLO205 cells (colon cancer); assay: SRB cytotoxicity assay, colon cancer cells COLO205; type: cell-based
Description: as §1, §2

normal cell = assay: Cytotoxicity on a normal cell (for selectivity index); type: cell-based; details: for IC50: column head names no cell, normal cell according to b79; for SI (selectivity index): ratio IC50 on normal cell / IC50 on cancer cell line
Description: Sulforhodamine B(SRB) assay method was used to evaluate cytotoxicity. Exponentially growing cells were collected using 0.25% Trypsin‐EDTA seeded in 96‐well plates at 1000‐2000 cells/well in RBMI‐1640 supplemented medium. After 24 h, cells were incubated for 72 h with various concentrations of the tested compounds. Following 72 h treatments, the cells would be fixed with 10% trichloroacetic acid for 1 h at 4°C. Wells were stained for 10 minutes at room temperature with 0.4% SRBC (Sulphorhodamine B) dissolved in 1% acetic acid. After that, the plates were air-dried for 24 h. At the same time, the dye was dissolved in Tris‐HCl and left for 5 min on the shaker at 1600 rpm. Each well’s optical density (OD) was measured spectrophotometrically at 564 nm; by using an ELISA microplate reader (ChroMate‐4300, FL, USA). The IC50 values were calculated according to the equation for Boltzman sigmoidal concentration-response curve using the nonlinear regression fitting models (Graph Pad, Prism Version 9).
The compounds show good selectivity toward cancerous cells, represented by the “selectivity index.” The selectivity index was previously used to measure selective cytotoxic activity. The selectivity index (SI) can be calculated from the ratio between IC50 of the compound on a normal cell and the compound on a cancer cell line. For example, the SI of compounds 6d, 10a, 10d, and 16 are 86.98, 76.82, 74.32, and 54.13, respectively.

[3] = Homo sapiens, SNU-16, 72 h incubation
[4] = Homo sapiens, COLO 205, 72 h incubation

SMILES | melting point [°C] | IC50 [1, 3] [µM] | IC50 [2, 4] [µM] | IC50 (normal cell) [µM] | SI (selectivity index) (normal cell) | IC50 ([1]; 72 h incubation) [µM] | IC50 ([2]; 72 h incubation) [µM]
Cc1nc(NN=C2CCc3cc(Br)ccc32)sc1N=Nc1cccc(Cl)c1 [6d, 2-(2-(5-Bromo-2,3-dihydro-1H-inden-1-ylidene)hydrazineyl)-5-((3-chlorophenyl)-diazenyl)-4-methylthiazole] | – | 19.79 ± 0.129 | 6.958 ± 0.04 | 605 ± 35.2 | 86.98 | – | –
Brc1ccc2c(c1)CCC2=NNc1nc(-c2ccccc2)cs1 [10a, N-(5-Bromo-indan-1-ylidene)-N’-(4-phenyl-thiazol-2-yl)-hydrazine] | – | 20 ± 0.64 | 6.301 ± 0.008 | 485 ± 7.89 | 76.82 | – | –
Clc1ccc(-c2csc(NN=C3CCc4cc(Br)ccc43)n2)cc1 [10d, N-(5-Bromo-indan-1-ylidene)-N’-[4-(4-chloro-phenyl)-thiazol-2-yl]-hydrazine] | – | 7.576 ± 0.075 | 12.16 ± 0.06 | 563 ± 44.2 | 74.32 | – | –
N.N.[Cl][Pt][Cl] [Cisplatin, reference compound] | – | – | – | 548 ± 61.2 | – | 11.27 ± 0.076 | 9.13 ± 0.07
NC(=S)NN=C1CCc2cc(Br)ccc21 [compound 3, 2-(5-Bromo-2,3-dihydro-1H-inden-1-ylidene)hydrazine-1-carbothioamide] | 227 to 230 | 19.01 ± 0.133 | 14.1 ± 0.04 | > 100 | – | – | –
NN=C1CCc2cc(Br)ccc21 [compound 4, (5-Bromo-indan-1-ylidene)-hydrazine] | 120 | 23.2 ± 0.204 | 8.167 ± 0.07 | > 100 | – | – | –
CCOC(=O)C(=NNc1ccccc1)NN=C1CCc2cc(Br)ccc21 [compound 15, Ethyl 2-(2-(5-bromo-2,3-dihydro-1H-inden-1-ylidene)hydrazineyl)-2-(2-phenyl-hydrazineylidene)acetate] | 174 to 176 | 16.6 ± 0.38 | 13.63 ± 0.04 | > 100 | – | – | –
O=C(Nc1ccccc1)C(=NNc1ccccc1)NN=C1CCc2cc(Br)ccc21 [compound 16, 2-(2-(5-Bromo-2,3-dihydro-1H-inden-1-ylidene)hydrazineyl)-N-phenyl-2-(2-phenyl-hydrazineylidene)acetamide] | – | 9.699 ± 0.0726 | 13.04 ± 0.025 | 525 ± 36.2 | 54.13 | – | –
CCN(CC)CCNC(=O)c1c(C)[nH]c(/C=C2\C(=O)Nc3ccc(F)cc32)c1C [sunitinib, reference compound] | – | 8.45 ± 0.023 | 11.27 ± 0.033 | 378 ± 31.8 | – | – | –

Second part, led by results:

melting point [°C] | SMILES | IC50 [1, 3] [µM] | IC50 [2, 4] [µM] | IC50 (normal cell) [µM] | SI (selectivity index) (normal cell) | IC50 ([1]; 72 h incubation) [µM] | IC50 ([2]; 72 h incubation) [µM]
220 to 222 | Cc1nc(N/N=C2\CCc3cc(Br)ccc32)sc1/N=N/c1ccccc1 [6a, 2-(2h4(5-Bromo-2,3-dihydro-1H-inden-1-ylidene)hydrazineyl)-4-methyl-5-(phenyldiazenyl)-thiazole] | 21.79 ± 0.076 | 17.14 ± 0.12 | > 100 | – | – | –
128 to 129 | Cc1cccc(N=Nc2sc(NN=C3CCc4cc(Br)ccc43)nc2C)c1 [6b, 2-(2-(5-Bromo-2,3-dihydro-1H-inden-1-ylidene)hydrazineyl)-4-methyl-5-(m-tolyldiazenyl)-thiazole] | 12.28 ± 0.03 | 9.813 ± 0.005 | > 100 | – | – | –
130 to 132 | Cc1ccc(N=Nc2sc(NN=C3CCc4cc(Br)ccc43)nc2C)cc1 [6c, 2-(2-(5-Bromo-2,3-dihydro-1H-inden-1-ylidene)hydrazineyl)-4-methyl-5-(p-tolyldiazenyl)thiazole] | 12.89 ± 0.076 | 7.576 ± 0.07 | > 100 | – | – | –
177 to 178 | Cc1nc(NN=C2CCc3cc(Br)ccc32)sc1N=Nc1ccc(Cl)cc1 [6e, 2-(2-(5-Bromo-2,3-dihydro-1H-inden-1-ylidene)hydrazineyl)-5-((4-chlorophenyl)diazenyl)-4-methylthiazole] | 26.19 ± 0.12 | 7.276 ± 0.03 | > 100 | – | – | –
233 to 234 | Cc1ccc(-c2csc(NN=C3CCc4cc(Br)ccc43)n2)cc1 [10b, N-(5-Bromo-indan-1-ylidene)-N’-(4-p-tolyl-thiazol-2-yl)-hydrazine] | 18.3 ± 0.39 | 12.08 ± 0.006 | > 100 | – | – | –
230 to 232 | Brc1ccc(-c2csc(NN=C3CCc4cc(Br)ccc43)n2)cc1 [10c, N-(5-Bromo-indan-1-ylidene)-N’-[4-(4-bromo-phenyl)-thiazol-2-yl]-hydrazine] | 26.8 ± 0.6 | 13.81 ± 0.025 | > 100 | – | – | –
190 | CC(=O)C(=NNc1ccccc1)NN=C1CCc2cc(Br)ccc21 [14a, N’-(5-bromo-2,3-dihydro-1H-inden-1-ylidene)-2-oxo-N’’-phenylpropanehydrazonhydrazide] | 14.9 ± 0.3 | 11.27 ± 0.046 | > 100 | – | – | –
197 to 198 | CC(=O)/C(=N\Nc1ccc(Cl)cc1)N/N=C1\CCc2cc(Br)ccc21 [14b, N’-(5-bromo-2,3-dihydro-1H-inden-1-ylidene)-N’’-(4-chlorophenyl)-2-oxopropanehydrazon-hydrazide] | 13.8 ± 0.69 | 10.61 ± 0.09 | > 100 | – | – | –
